This note sets out measurements from PubChem BioAssay (NCI).

What all share (assay): growth of human tumour cells (NCI), 48 h
For test [1], the system named is M14 melanoma.
In test [2] the test system is MOLT-4 leukemia.
In test [3] the test system is HOP-92 NSCLC.
Test [4] has as its system HCT-15 colon.
The test system of test [5] is UACC-62 melanoma.
Test [6] relates to ACHN renal.
Test [7] deals with CCRF-CEM leukemia.
In test [8] the test system is SW-620 colon.
The test system of test [9] is 786-0 renal.
Test [10] relates to SNB-75 CNS.

Molecules are shown by their SMILES.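 Briefly, cells in 96-well plates were exposed to five compound concentrations for 48 h, and endpoints were estimated by linear interpolation. Abbreviation: GI50, concentration required for 50% inhibition of growth. Definition used: TGI = concentration required for complete inhibition of growth.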 Some results are limits rather than exact numbers.

With `COc1cc2c(cc1O)C1Cc3ccc(OC)c(O)c3C(C2)N1C` (configuration not stated), the TGI in [1], in [2], in [3], in test [4], in [5] and in test [6] was over 100 µM in each case. Besides, the TGI in test [7], in test [8] and in test [9] was over 100 µM in each case.

Consider `Nc1nc(CCl)nc(Nc2ccccc2)n1`, for which the TGI was 32.8 µM in test [1]; 37.2 µM in test [2]; 33.6 µM in test [3]; 50.3 µM in test [10]; 34.6 µM in [5]; 66.1 µM in test [6]. Moreover, the TGI in test [7] turned out to be 4.58 µM; in test [8], 46.3 µM; in test [9], 4.35 µM.

In the case of `CN1NC(=Nc2ccccc2)Sc2c1cnn(-c1ccccc1)c2=O`, the TGI in test [1], in test [2], in test [3], in test [4], in test [5] and in test [6] was over 100 µM each time. The TGI in [7], in [8] and in test [9] was over 100 µM throughout.

In the case of `COC(=O)OCC1OC(N2C(=O)NC(=O)C(Br)C2N=[N+]=[N-])CC1OC(=O)OC` (configuration not stated), the TGI in test [1], in test [3], in [10], in test [4], in [5] and in test [6] was over 100 µM throughout. Besides, the TGI in [7], in test [8] and in test [9] was over 100 µM throughout.

With `N=C(N)SCc1cccc(-c2nc3ccccc3c(=O)o2)c1`, the TGI in test [1], in [3], in [10], in test [4], in [5] and in test [6] was over 100 µM in each case. Besides, the TGI in [8] and in test [9] was over 100 µM throughout.

`Cc1ccc(C2(O)CC(c3ccc([N+](=O)[O-])o3)=NN2C(=O)COc2ccc(Cl)cc2)cc1` (configuration not stated): the TGI in [1] is 17.1 µM; in test [2] it was over 100 µM; in test [3] it was 24.3 µM; in test [10] it was over 48.3 µM; in test [4] it was 17.7 µM; in test [5] it was 15.1 µM. Besides, the TGI in [6] was 43.1 µM; in test [8] it was 10.6 µM; in [9], 18 µM.

Regarding `Cc1cc(S(=O)(=O)N/N=C(\Sc2cc(Cl)c(C)cc2S(N)(=O)=O)c2ccc(Cl)cc2)c(Cl)cc1Cl`, the GI50 is over 100 µM in [1]; 48.3 µM in [2]; 47.6 µM in [3]; over 100 µM in test [4]; over 100 µM in [5]; 25.6 µM in [6]. Moreover, the GI50 in [7] was 36.8 µM; in [8], 40.4 µM; in [9], 42.1 µM. In addition, the TGI is over 100 µM in test [1]; over 100 µM in [2]; over 100 µM in test [3]; over 100 µM in test [4]; over 100 µM in test [5]; 73.9 µM in test [6]. Besides, the TGI in [7], in [8] and in [9] was over 100 µM in each case.

With `C=C1C(=O)O[C@H]2/C=C(/C)C3=CC(=O)[C@@](C)(C[C@@H](OC(=O)/C(C)=C\C)C12)O3` (some centres not stated), the TGI in [1] is over 28.8 µM; in [2] it was 6.01 µM; in test [3], 2.07 µM; in [10], 23.9 µM; in [4] it was 1.45 µM; in test [5], 3.36 µM. Moreover, the TGI in test [6] stood at 0.958 µM; in test [9], 2.22 µM.

`CC(C)(C=O)CC(C#N)/C(=N\NC(N)=O)C(=O)Nc1ccccc1C(N)=O` (configuration not stated): the TGI in [1], in test [2], in test [3], in test [4], in test [5] and in [6] was over 100 µM each time. Moreover, the TGI in test [7], in test [8] and in test [9] was over 100 µM in each case.

Turning to `CN[C@@H](C)[C@H](NC)c1ccccc1`, the TGI in test [1], in test [2], in test [3], in test [10], in test [4] and in [5] was over 100 µM throughout. Further, the TGI in test [7], in test [8] and in [9] was over 100 µM each time.

For `CC1(C)O/C(=C\c2ccccc2)C(=O)/C(=C/c2ccccc2)O1`, the TGI was over 100 µM in test [1]; 43.9 µM in [2]; over 100 µM in [3]; over 100 µM in test [10]; over 100 µM in test [5]; over 100 µM in test [6]. Further, the TGI in [7] was 44.4 µM; in test [8] it was over 100 µM; in test [9], over 100 µM.

Turning to `N#CC(=NCCO)C1=C(O)c2ccccc2C1=O`, the TGI in [1], in [2], in test [3], in test [10], in test [4] and in test [5] was over 100 µM throughout. Moreover, the TGI in [6], in test [8] and in test [9] was over 100 µM each time.

Regarding `Oc1cn(-c2ccc(Cl)cc2)nc1-c1n[nH]c(=S)n1C1CCCCC1`, the GI50 in test [1] is 0.682 µM; in test [2] it was 0.5 µM; in test [3], 38.7 µM; in test [10], 0.165 µM; in test [4] it was 0.31 µM; in test [7], 0.252 µM. For the same compound, the GI50 in [8] is 0.475 µM; in test [9], 1.82 µM. Moreover, the TGI was 38.7 µM in [1]; over 29 µM in [2]; over 100 µM in test [3]; 0.702 µM in [10]; over 100 µM in [4]; over 100 µM in test [5]. For the same compound, the TGI in test [7], in test [8] and in [9] was over 100 µM throughout.
